Earlier results in patent US7763563B2, “Niobium compounds and hydrates thereof, formulations containing the same, and methods of providing specifications therefor” (H. C. Starck GmbH, priority 2006, dated 2010).

Conditions: prior art compounds, Limar et al.

- water solubility: 40 g Nb/1
Substance: (NH4)3[Nb(O)(C2O4)3]*x H2O
